# Publication PMC8939339, “Mechanism of Cooperative Degradation of Gum Arabic Arabinogalactan Protein by Bifidobacterium longum Surface Enzymes” (Applied and Environmental Microbiology, 2022)
# Target: T1, BlArafE (Bifidobacterium longum, UniProt A0ACD7UMY4)
# T1 construct: gene BLLJ_1850; signal peptide (aa 1-26) and C-terminal TM region (aa 1637-1659) removed; printed insert 88 to 4899 (nucleotides); His-tag (printed both as C- and N-terminal; pET23b); E. coli BL21(DE3); 175 kDa
# Assay: HPAEC-PAD of reaction products
# Format: biochemical
# Conditions: 50 mM sodium acetate pH 6.0, 37 °C, 16 h; both alpha1,3- and alpha1,4-Araf cleaved
# T1 sequence (A0ACD7UMY4 30-1633): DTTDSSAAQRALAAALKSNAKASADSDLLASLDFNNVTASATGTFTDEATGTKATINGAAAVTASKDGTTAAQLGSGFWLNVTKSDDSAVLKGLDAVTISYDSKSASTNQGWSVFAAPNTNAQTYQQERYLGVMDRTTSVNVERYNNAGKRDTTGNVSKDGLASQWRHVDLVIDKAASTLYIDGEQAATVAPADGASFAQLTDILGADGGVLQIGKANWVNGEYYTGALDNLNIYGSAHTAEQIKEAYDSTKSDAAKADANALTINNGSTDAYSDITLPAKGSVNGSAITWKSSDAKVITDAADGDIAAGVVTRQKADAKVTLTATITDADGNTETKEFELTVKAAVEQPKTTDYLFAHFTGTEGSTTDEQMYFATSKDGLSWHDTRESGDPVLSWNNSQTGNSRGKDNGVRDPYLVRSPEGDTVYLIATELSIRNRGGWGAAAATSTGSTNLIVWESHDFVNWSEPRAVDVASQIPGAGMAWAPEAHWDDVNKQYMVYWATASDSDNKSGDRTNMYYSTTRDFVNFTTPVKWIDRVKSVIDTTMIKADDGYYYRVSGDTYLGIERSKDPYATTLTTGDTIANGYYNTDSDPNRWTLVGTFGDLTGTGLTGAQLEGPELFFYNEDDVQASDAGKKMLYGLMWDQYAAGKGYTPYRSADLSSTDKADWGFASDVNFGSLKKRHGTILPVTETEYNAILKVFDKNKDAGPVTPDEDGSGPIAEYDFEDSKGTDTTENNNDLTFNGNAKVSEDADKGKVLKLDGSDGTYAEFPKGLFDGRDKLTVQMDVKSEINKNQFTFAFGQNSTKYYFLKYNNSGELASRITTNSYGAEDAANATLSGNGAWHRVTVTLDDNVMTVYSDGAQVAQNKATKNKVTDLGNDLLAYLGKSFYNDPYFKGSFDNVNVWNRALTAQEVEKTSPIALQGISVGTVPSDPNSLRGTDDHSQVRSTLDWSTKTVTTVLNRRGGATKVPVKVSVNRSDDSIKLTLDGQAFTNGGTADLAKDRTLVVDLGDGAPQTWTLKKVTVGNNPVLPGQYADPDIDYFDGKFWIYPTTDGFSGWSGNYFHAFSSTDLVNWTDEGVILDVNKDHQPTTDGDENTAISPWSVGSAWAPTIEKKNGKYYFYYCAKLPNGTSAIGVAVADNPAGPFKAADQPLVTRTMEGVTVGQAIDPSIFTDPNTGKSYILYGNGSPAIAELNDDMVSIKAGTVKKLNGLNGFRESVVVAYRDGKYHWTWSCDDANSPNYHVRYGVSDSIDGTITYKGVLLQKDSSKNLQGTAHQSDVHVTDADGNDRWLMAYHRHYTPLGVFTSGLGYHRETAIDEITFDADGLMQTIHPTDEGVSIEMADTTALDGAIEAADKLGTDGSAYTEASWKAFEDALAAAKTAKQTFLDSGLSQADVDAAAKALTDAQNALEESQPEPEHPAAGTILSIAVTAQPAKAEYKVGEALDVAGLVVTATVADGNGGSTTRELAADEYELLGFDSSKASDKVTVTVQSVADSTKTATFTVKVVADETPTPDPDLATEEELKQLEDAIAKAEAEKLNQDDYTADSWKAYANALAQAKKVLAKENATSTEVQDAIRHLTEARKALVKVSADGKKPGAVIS
smiles,measurement,value
C[C@@H]1O[C@@H](O[C@H]2[C@H](O)[C@@H](O)[C@H](OC[C@H]3O[C@@H](OC[C@H]4OC(O)[C@H](O)[C@@H](O)[C@H]4O)[C@H](O)[C@@H](OC4O[C@@H](CO)C(O)[C@H]4O)[C@H]3OC3O[C@@H](CO)C(O)[C@H]3O)O[C@@H]2C(=O)O)[C@H](O)[C@H](O)[C@H]1O (stereo partly shown) [S5-A],HPAEC-PAD of reaction products,BlArafE cleaved S5-A into S4 and L-arabinose
